These are literature values, as cited in patent US11406678B2, “Simmondsin formulation” (priority 2016, dated 2022).

For this series the following is noted: rats, 25 mg or 50 mg simmondsin per kg body weight.

In the case of `CO[C@H]1[C@@H](OC)C[C@@H](O[C@@H]2O[C@H](CO)[C@@H](O)[C@H](O)[C@H]2O)/C(=C\C#N)[C@@H]1O` [simmondsin], the weight loss result is listed as “no effect on the weight loss”.
